From US20230144023A1, “USE OF BUTYLPHTHALIDE AND DERIVATIVE THEREOF” (CSPC NBP PHARMACEUTICAL CO., LTD, priority 2020, published 2023)
Like-named read-outs stand apart in the source and are kept apart here.

Legend:
DU145 = assay: In vitro tumor cell proliferation, MTT (Example 7); conditions: Homo sapiens, DU-145, 72 h
Description: (§7) This experiment includes a monotherapy group of Bortezomib, a combined therapy group (Bortezomib/NBP), and a monotherapy group of NBP. Different drug concentration gradients were set for each group.
(§8) Monotherapy group of Bortezomib: (1) MM.1S, Jeko-1, and HT29 cells: Bortezomib was 1.5× serially diluted from an initial concentration of 20 nM to 8 concentrations: 20, 13.33, 8.89, 5.93, 3.95, 2.63, 1.76, and 1.17 nM, respectively; (2) A549 cells: Bortezomib was 2×serially diluted from an initial concentration of 200 nM to 8 concentrations: 200, 100, 50, 25, 12.5, 6.25, 3.13, and 1.56 nM, respectively; and (3) DU145 cells: Bortezomib was 2× serially diluted from an initial concentration of 100 nM to 8 concentrations: 100, 50, 25, 12.5, 6.25, 3.13, 1.56, and 0.78 nM, respectively.
(§9) A certain number of conventionally cultured cells in logarithmic growth phase were inoculated in a 96-well plate with 100 μL per well. […] For adherent cells HT29, A549, and DU145, the above drugs were added 24 h after adherence. 3 replicate wells were set for each concentration of each drug, and blank wells (only culture medium was present, and no tumor cells were inoculated) and normal wells (a culture medium inoculated with tumor cells, drug concentration was 0) were set. The drugs functioned for 72 h, then MTT working solution (5 mg/mL) was added at 20 μL per well; after functioning at 37° C. for 4 h, the supernatant was removed, 150 μL of DMSO (analytically pure) was added; the mixture was fully mixed using a microplate oscillator, the plate was wiped clean, and the optical density (OD) at 550 nm was measured using a microplate reader.
(§10) The cell growth inhibition rate was computed using the following equation:
(§11) Inhibition rate (%)=(OD valuenormal well−OD valueadministration well)/(OD valuenormal well−OD valueblank well)×100%
(§12) Based on the inhibition rate of each concentration, the median inhibitory concentration IC50 of the drug was computed using SPSS19.0.

[1] = tested on: paclitaxel (albumin bound) chemotherapy-induced peripheral neuropathy; assay: Paclitaxel (albumin bound) chemotherapy-induced peripheral neuropathy in rats, butylphthalide intraperitoneal injection (Example 1); assay type: in vivo, SD (Sprague Dawley) rats; conditions: NBP 1.5, 5 and 15 mg/kg bid i.p., compared with the model group
Description: The normal group was administered with 0.9% normal saline (0.9% INJ NS) at the same frequency. The animal grouping, the administration method, and the doses are detailed in Table 3. Based on the thermal pain threshold baselines and the body weights of the rats, the rats with the baseline values ranging from 3 to 6 s were selected, and were equally grouped in accordance with the above Table 3. […] (2) Thermal pain threshold: IITC Life Science Electronic Von Frey Anesthesio meter was used and the intensity of the light source was adjusted to obtain a baseline of thermal pain threshold of about 3-6 s. […] The rats were placed in a plastic compartment on a glass plate, to make the planta centers of the rats be exposed to the light source.

MM.1S xenograft tumor = assay: Influence of NBP on in vivo anti-tumor efficacy of Bortezomib, MM.1S xenograft (Example 8); set-up: species or system Nu/Nu mice
Description: After in vitro resuscitation and passage of MM.1S cells to a sufficient amount, the cells were counted by a microscope, and diluted with a serum-free medium to adjust the cell count to about 1×10^8 cells/mL. The cell suspension was kept in an ice-water bath. The MM.1S cell suspension was extracted by a sterile syringe and inoculated into the subcutaneous tissue of the forelimb axilla of the Nu/Nu mice. […] Monotherapy group of Palbociclib: intragastric administration at 70 mg/kg, qd (the administration was commenced on day 0); […] The solvent group was given the solvent at the same frequency and with the same administration method as Bortezomib and NBP. The administration period was 16 days, and the administration volume was 10 mL/kg. […] Animals were weighed at set time once per day after the commencement of administration. After animals were grouped, the long diameter and the short diameter of the tumor were measured twice every week. […] V=1⁄2×A×B^2 […] (4) Tumor growth inhibition rate: Note: V: tumor volume; A: tumor length; B: tumor width; RTV: relative tumor volume; TVnd: tumor volume on day n; TV0d: tumor volume on day 0; […]: mean relative tumor volume on day n; TVXn: mean tumor volume of the therapy group on day n; TVX0: mean tumor volume of the therapy group on day 0; TVMn: mean tumor volume of the solvent group on day n; and TVM0: mean tumor volume of the solvent group on day 0 At the end of the experiment, after the animals were euthanized by CO2 asphyxiation, the tumors were excised and weighed.

MM.1S = assay: In vitro tumor cell proliferation, MTT (Example 7); conditions: Homo sapiens, MM1.S, 72 h
Description: as §7, §8, §9, §10, §11, §12

[2] = PK of total paclitaxel in plasma, JIMT-1 tumor-bearing mice (Example 4); assay type: in vivo, Nu/Nu mice; conditions: NBP 6, 20, 60 mg/kg bid gavage with ab-PTX 15 mg/kg i.v.
Description: Administration period: 28 days. Administration volume: 10 mL/kg.
The administration period was 28 days. The administration volume was 10 mL/kg.

[3] = tested on: MM.1S, Jeko-1, HT29, A549, DU145; assay: In vitro proliferation of 5 cell strains, summary statements (Example 7); assay type: cell-based, Human; conditions: monotherapy of NBP; 5 cell strains
Description: Different drug concentration gradients were set for each group.
(§1) Monotherapy group of NBP: NBP was 2× serially diluted from an initial concentration of 480 μM to 8 concentrations: 480, 240, 120, 60, 30, 15, 7.5, and 3.75 μM, respectively.
(§2) The action time of the drug was 72 h.
3 replicate wells were set for each concentration of each drug, and blank wells (only culture medium was present, and no tumor cells were inoculated) and normal wells (a culture medium inoculated with tumor cells, drug concentration was 0) were set.

MDA-MB-231 = assay: In vitro tumor cell proliferation, MTT (Example 5); assay type: cell-based; conditions: Homo sapiens, 30 μM NBP alone, 72 h, read-out: Inhibition rate
Description: (§3) This experiment includes a monotherapy group of ab-PTX, a combined therapy group (ab-PTX/NBP), and an NBP group. Different drug concentration gradients were set for each group.
(§4) ab-PTX/NBP group: the final concentration of NBP was 30 μM, and the concentration gradient of ab-PTX was the same as that of the monotherapy group.
as §1, §2
(§5) 24 h after adherence, 100 μL of the culture solution containing different concentration gradients of ab-PTX was added to each well of the monotherapy group of ab-PTX; 100 μL of the culture solution containing different concentration gradients of ab-PTX and 30 μM NBP was added to each well of the combined therapy group of ab-PTX/NBP; 100 μL of the culture solution containing different concentration gradients of NBP was added to each well of the monotherapy group of NBP; 3 repeated wells were provided for each concentration of each drug, and the blank wells (only culture medium was present) and the normal wells (drug concentration was 0) were provided.
(§6) The experiment was repeated three times, and the IC50 value was expressed as the mean±SD of the results of the 3 experiments.

A375 = assay: In vitro tumor cell proliferation, MTT (Example 5); assay type: cell-based; conditions: Homo sapiens, A-375, 30 μM NBP alone, 72 h, read-out: Inhibition rate
Description: as §3, §4, §1, §2, §5, §6

JIMT-1 = assay: In vitro tumor cell proliferation, MTT (Example 5); assay type: cell-based; conditions: Homo sapiens, 30 μM NBP alone, 72 h, read-out: Inhibition rate
Description: as §3, §4, §1, §2, §5, §6

HT29 = assay: In vitro tumor cell proliferation, MTT (Example 5); assay type: cell-based; conditions: Homo sapiens, HT-29, 30 μM NBP alone, 72 h, read-out: Inhibition rate
Description: as §3, §4, §1, §2, §5, §6

SK-OV-3 = assay: In vitro tumor cell proliferation, MTT (Example 5); assay type: cell-based; conditions: Homo sapiens, 30 μM NBP alone, 72 h, read-out: Inhibition rate
Description: as §3, §4, §1, §2, §5, §6

A549 = assay: In vitro tumor cell proliferation, MTT (Example 5); assay type: cell-based; conditions: Homo sapiens, 30 μM NBP alone, 72 h, read-out: Inhibition rate
Description: as §3, §4, §1, §2, §5, §6

Jeko-1 = assay: In vitro tumor cell proliferation, MTT (Example 7); conditions: Homo sapiens, JeKo-1, 72 h
Description: as §7, §8, §9, §10, §11, §12

[4] = read-out: Inhibition rate, First dose
[5] = read-out: Inhibition rate, Mean ± SD
[6] = read-out: Inhibition rate, Second dose
[7] = read-out: Inhibition rate, Third dose
[8] = day 14, Bor 0.5 mg/kg, Pal 70 mg/kg, NBP 60 mg/kg, alone or combined
[9] = day 14, Bor 0.5 mg/kg, Pal 70 mg/kg, NBP 60 mg/kg, alone or combined, mean, n=6

CCCCC1OC(=O)c2ccccc21 (centres unmarked) [NBP, 3-n-butylphthalide]
inhibition at 30 µM (DU145; [4]): -2.22%
inhibition at 30 µM (DU145; [5]): 4.03 ± 5.88%
inhibition at 30 µM (DU145; [6]): 9.44%
inhibition at 30 µM (DU145; [7]): 4.87%
body weights of the rats ([1]; D4-16): not significantly changed
thermal pain threshold (increase in model rats) ([1]; D7-13, P<0.05 or P<0.01): significantly decreased
influence of NBP on the tumor inhibition efficacy of Bortezomib (MM.1S xenograft tumor; NBP/Bortezomib 60/0.5 mg/kg compared with monotherapy group of Bortezomib, end of experiment): did not have obvious negative influence
influence of NBP on the antitumor efficacy of combined therapy of Bortezomib/Palbociclib (MM.1S xenograft tumor; NBP/Bortezomib/Palbociclib compared with Bortezomib/Palbociclib, end of experiment): did not have obvious negative influence
body weights of the mice (MM.1S xenograft tumor; between groups, P>0.05): no significant difference
Body weight (MM.1S xenograft tumor; day 14, Bor 0.5 mg/kg i.p. biw, Pal 70 mg/kg qd i.g., NBP 60 mg/kg bid gavage, alone or combined, mean, n=6): 24.9 g
T/C % (MM.1S xenograft tumor; [8]): 73.8%
TGI % (MM.1S xenograft tumor; [8]): 25.8%
RTV (MM.1S xenograft tumor; [9]): 7.2
TV (MM.1S xenograft tumor; [9]): 938.1 mm^3
Tumor weight inhibition rate (MM.1S xenograft tumor; end of experiment, Bor 0.5 mg/kg, Pal 70 mg/kg, NBP 60 mg/kg, alone or combined): 36.9%
Tumor weight (MM.1S xenograft tumor; end of experiment, Bor 0.5 mg/kg, Pal 70 mg/kg, NBP 60 mg/kg, alone or combined, mean, n=6, in g (unit assumed)): 1.040
inhibition at 30 µM (MM.1S; [4]): 0.16%
inhibition at 30 µM (MM.1S; [5]): 12.1 ± 11.1%
inhibition at 30 µM (MM.1S; [6]): 14.1%
inhibition at 30 µM (MM.1S; [7]): 22.1%
influence of combined butylphthalide on the pharmacokinetic behavior of paclitaxel in the plasma [2]: did not affect
inhibitory effect on in vitro proliferation [3]: does not have obvious inhibitory effect
inhibition at 30 µM (MDA-MB-231): 3.43 ± 3.95%
inhibition at 30 µM (A375): 10.9 ± 0.57%
inhibition at 30 µM (JIMT-1): 7.39 ± 13.2%
inhibition at 30 µM (HT29): 10.1 ± 7.94%
inhibition at 30 µM (SK-OV-3): 12.4 ± 7.41%
inhibition at 30 µM (A549): 5.12 ± 7.36%
inhibition at 30 µM (Jeko-1; [4]): -7.67%
inhibition at 30 µM (Jeko-1; [5]): -11.5 ± 6.32%
inhibition at 30 µM (Jeko-1; [6]): -18.8%
inhibition at 30 µM (Jeko-1; [7]): -8.11%
